Key:
[1] = tested on: phenylbenzoquinone-induced stretching or twisting movements (writhing syndrome); assay: Siegmund test (analgesic action; phenylbenzoquinone writhing syndrome); format: in vivo; details: mouse, 300 mg/kg PO, 30 minutes before phenylbenzoquinone, protected = less than five stretching movements in 5 minutes
Procedure: Reference: […], E. A.: CADMUS, R. A.: GOLU: "A Method for evaluating both non-narcotic and narcotic Analgesics." Pro. Soc. Exp. Biol., 1957, b, 95, 729-731.
Principle: Injection of an irritant, phenylbenzoquinone (in 0.02% solution), into the peritoneum of a mouse, determination of the stretching or twisting movements (writhing syndrome), whose frequency is diminished by the preventive administration of analgesic.
The substances were given orally 30 minutes before injection of the irritant. The number of stretching movements between the 5th and 10th minute after injection of phenylbenzoquinone were counted. The percentage of animals protected was calculated. A mouse was considered protected if it executed less than five stretching movements in 5 minutes.

in vivo = details: mouse, po
[2] = tested on: femoral arterial pressure and cardiac contractile force; assay: Cardiovascular action in a dog anaesthetised with chloralose; format: in vivo
Procedure: This action was studied in a dog, anaesthetised with chloralose, its reflexogenic, cardioaortic and sinocarotidian zones being intact (normotense dog), or denervated (hypertense dog). The product to be tested was injected in the saphena vein, and the femoral arterial pressure and cardiac contractile force were recorded.

mouse = details: for DL 50: per os, species not given
[3] = Mucolytic action: measurement of the fluidising action of the bronchial secretion (microviscosimeter of the BROOKFIELD type); details: for Percentage diminution of viscosity: 37° C.
Procedure: Mucolytic action: measurement of the fluidising action of the bronchial secretion.
The study of the viscosity of an expectoration is effected in vitro. In order to measure viscosity, a microviscosimeter of the BROOKFIELD type is used. With the aid of this apparatus, the resistant couple exerted on a rotor is determined. This rotor, submerged in the liquid whose viscosity is to be measured, rotates at a known constant speed.
1.5 ml of secretion, taken to ambient temperature, was poured into a container of the viscosimeter. After 4 minutes, the temperature of the expectoration was balanced at 37° C., then the motor of the apparatus was started for 5 minutes, after which measurement was effected.
Three rotor speeds were used:
1.5 r.p.m.; 3 r.p.m., and 6 r.p.m.
The three speeds were used for each test. Firstly, the viscosity of the pure expectoration was measured, then that of the expectoration to which had been added one drop of distilled water as a solvent, and whose retained values were later used as witness values, or placebo values.
Thereafter, 1.5 ml of secretion had added to it a drop of the product at the first aqueous concentration envisaged.
The viscosity was measured at the three rotary speeds of the rotor. The same operation was repeated at the following concentrations; 1 mg/ml; 2 mg/ml and 5 mg/ml.
The reference substance was mercapto-ethane sulfonate of sodium or MISTABRON (M.E.S. Na). This substance had been studied under the same experimental conditions at a concentration of 200 mg/ml.

## O=C(O)CSCCC1NC(C(=O)O)CS1 (stereo not shown) [Compound No. 4, 4-carboxy-thiazolidinyl-2-ethyl mercapto acetic acid]
[1]; 300 mg/kg
  % of animals protected: 40%
In vivo
  LD50: > 1200 mg/kg

## O=C(O)C1CSC(CCSCc2nc3ccccc3[nH]2)N1 (stereo not shown) [Compound No. 10, 2-[2-(benzimidazolylmethyl)-2-thioethyl]-thiazolidine 4-carboxylic acid]
[2]; saphena vein injection, 20 mg/kg
  cardiostimulant properties (in words): clear cardiostimulant properties
mouse
  DL 50: > 1200 mg/kg

## O=C(O)CSCCC1NC(C(=O)O)CS1 (stereo not shown) [Compound No. 5, 4-carboxy thiazolidinyl 2-ethyl mercapto acetate of di(diisopropylamine)]
[2]; intravenous, 10 mg/kg
  antihypertensive and hypotensive action (in words): antihypertensive and hypotensive
[1]; 300 mg/kg
  % of animals protected: 20%
mouse
  Acute Toxicity mouse PO: > 1200 mg/kg
  DL 50: > 1200 mg/kg

## CCOC(=O)CSCCC1NC(C(=O)O)CS1 (stereo not shown) [Compound No. 8, 2-[(Ethoxycarbonylmethylthio)-ethyl] thiazolidine 4-carboxylate of diisopropylamine]
[3]; 1 mg/ml, rotor speed V = 1.5 r.p.m.
  Percentage diminution of viscosity: 58%
[3]; 1 mg/ml, rotor speed V = 3 r.p.m.
  Percentage diminution of viscosity: 55%
[3]; 1 mg/ml, rotor speed V = 6 r.p.m.
  Percentage diminution of viscosity: 46%
[3]; 2 mg/ml, rotor speed V = 1.5 r.p.m.
  Percentage diminution of viscosity: 60%
[3]; 2 mg/ml, rotor speed V = 3 r.p.m.
  Percentage diminution of viscosity: 57%
[3]; 2 mg/ml, rotor speed V = 6 r.p.m.
  Percentage diminution of viscosity: 47.5%
[3]; 5 mg/ml, rotor speed V = 1.5 r.p.m.
  Percentage diminution of viscosity: 71%
[3]; 5 mg/ml, rotor speed V = 3 r.p.m.
  Percentage diminution of viscosity: 62%
[3]; 5 mg/ml, rotor speed V = 6 r.p.m.
  Percentage diminution of viscosity: 58%
[3]; in accordance with the doses used (1, 2, 5 mg/ml vs 200 mg/ml M.E.S. Na)
  mucolytic action versus reference M.E.S. Na (in words): comparable with and even superior to the reference substance

## O=C(O)CSCCC1NC(C(=O)O)CS1 (stereo not shown) [compound 6, 4-carboxy thiazolidinyl 2-ethyl mercapto arginine acetate]
[1]; acetate, 300 mg/kg
  % of animals protected: 20%
mouse
  Acute Toxicity mouse PO: > 1200 mg/kg

## O=C(O)C1CSC(CCSc2nc3ncccc3o2)N1 (stereo not shown) [compound 11, 2-(2-pyridoxazolyl-2-thioethyl)thiazolidine 4-carboxylic acid]
[1]
  % of animals protected: 20%
In vivo
  LD50: > 1200 mg/kg

## O=S(=O)(O)CCS [M.E.S. Na, mercapto-ethane sulfonate of sodium, reference compound]
[3]; 200 mg/ml, rotor speed V = 1.5 r.p.m.
  Percentage diminution of viscosity: 66%
[3]; 200 mg/ml, rotor speed V = 3 r.p.m.
  Percentage diminution of viscosity: 65%
[3]; 200 mg/ml, rotor speed V = 6 r.p.m.
  Percentage diminution of viscosity: 55%
